Key:
[1] = target: PDE5A1 (Homo sapiens (Human), UniProt O76074); test: In vitro enzyme assay, PDE5; format: biochemical; conditions: PDE5A, 500 nM cGMP
[2] = target: PDE7A (Homo sapiens (Human), UniProt Q13946); test: In vitro enzyme assay, PDE7; format: biochemical; conditions: 15 nM cAMP
[3] = target: PDE6C (Homo sapiens (Human), UniProt P51160); test: In vitro enzyme assay, PDE6; format: biochemical; conditions: […] cGMP
[4] = target: T1, PDE10A1 (Homo sapiens (Human), UniProt Q9Y233); test: In vitro enzyme assay, PDE10; conditions: read-out: IC50 PDE10; PDE10A, 30 nM cAMP
[5] = test system: chronic lymphocytic leukemia cells from a first leukemia patient; test: Apoptosis of chronic lymphocytic leukemia cells, first patient; format: cell-based, human; design: % apoptosis: dose or concentration left out as unconfirmed; conditions: for effect on apoptosis, in words: first patient, high background apoptosis
Excerpt: (§1) In collaboration with other researchers, the effect of different PDE inhibitors on chronic lymphocytic leukemia cells was investigated. The lymphocytic leukemia cells were obtained from individual patients and cannot be maintained in cell culture.

[6] = test system: chronic lymphocytic leukemia cells from a second leukemia patient; test: Apoptosis of chronic lymphocytic leukemia cells, second patient (JM168); format: cell-based, human
Excerpt: as §1

[7] = test system: JVM-2 cells; test: Apoptosis of JVM-2 B cell leukemia cell line; format: cell-based; conditions: for effect on apoptosis, in words: JVM-2
[8] = test system: normal T cells; test: Apoptosis of normal T cells; format: cell-based; conditions: for cell viability of normal T cells: with or without rolipram
[9] = test system: REC-1 cells; test: Apoptosis of REC-1 B cell leukemia cell line; format: cell-based; conditions: for effect on apoptosis, in words: REC-1
[10] = test system: chronic lymphocytic leukemia cells from a third leukemia patient; test: Apoptosis of chronic lymphocytic leukemia cells, third patient (JM167); format: cell-based, human
Excerpt: as §1

[11] = test system: H295R cells; test: Cortisol assay in H295R cells; format: cell-based, human; conditions: 20 μM, 24 h, forskolin
Procedure: H295R cells were treated with compounds as described in the cAMP assays, for 24 h. Media was collected and cortisol content was quantified using a Cortisol EIA Kit (Oxford Biomedical Research). Cortisol levels were normalized to protein concentrations in cell extracts, as described above.

[12] = test system: H295R cells; test: cAMP assay in H295R adrenocortical cells; format: cell-based, human; conditions: 20 μM, 2 h, absence or presence of 10 μM forskolin
Procedure: (§2) Human NCI-H295R cells were maintained as described (33). HeLa cells were maintained in DMEM with 10% FBS. 90% confluent cells in 12-well dishes were incubated in serum-starved media for 1 h, then in 0.5 ml serum-starved media with 20 µM compounds or 0.2% DMSO for 2 h in the absence or presence of 10 μM forskolin (Sigma Aldrich). Media was collected and cAMP levels were measured as described (33), using a cAMP ELISA kit (Enzo). cAMP levels were normalized to protein content measured using a BCA Protein Assay Kit (Pierce). Immunoblot analysis of protein lysates was performed as described (34), using phospho-CREB(9198), Akt(4685), or CREB(9197) primary antibodies (Cell Signaling Technology) and goat anti-rabbit IgG-HRP secondary antibody (sc-2030, Santa Cruz).

[13] = target: T1, PDE10A1; test: biochemical
[14] = target: human PDE11A4 (Homo sapiens (Human), UniProt Q9HCR9); test: biochemical
[15] = test system: H295R cells; test: ATF-1 phosphorylation immunoblot in H295R cells; format: cell-based, human
Procedure: as §2

[16] = test system: HeLa cells; test: cAMP assay in HeLa cells; format: cell-based; conditions: as for H295R cells (20 μM)
Procedure: as §2

[17] = test system: HeLa cells; test: CREB phosphorylation immunoblot in HeLa cells; format: cell-based; conditions: as for H295R cells (20 μM)
Procedure: as §2

[18] = compound 20 μM plus Rolipram (20 μM)

T1 sequence (Q9Y233 other isoform, or with tags, fused parts or gaps): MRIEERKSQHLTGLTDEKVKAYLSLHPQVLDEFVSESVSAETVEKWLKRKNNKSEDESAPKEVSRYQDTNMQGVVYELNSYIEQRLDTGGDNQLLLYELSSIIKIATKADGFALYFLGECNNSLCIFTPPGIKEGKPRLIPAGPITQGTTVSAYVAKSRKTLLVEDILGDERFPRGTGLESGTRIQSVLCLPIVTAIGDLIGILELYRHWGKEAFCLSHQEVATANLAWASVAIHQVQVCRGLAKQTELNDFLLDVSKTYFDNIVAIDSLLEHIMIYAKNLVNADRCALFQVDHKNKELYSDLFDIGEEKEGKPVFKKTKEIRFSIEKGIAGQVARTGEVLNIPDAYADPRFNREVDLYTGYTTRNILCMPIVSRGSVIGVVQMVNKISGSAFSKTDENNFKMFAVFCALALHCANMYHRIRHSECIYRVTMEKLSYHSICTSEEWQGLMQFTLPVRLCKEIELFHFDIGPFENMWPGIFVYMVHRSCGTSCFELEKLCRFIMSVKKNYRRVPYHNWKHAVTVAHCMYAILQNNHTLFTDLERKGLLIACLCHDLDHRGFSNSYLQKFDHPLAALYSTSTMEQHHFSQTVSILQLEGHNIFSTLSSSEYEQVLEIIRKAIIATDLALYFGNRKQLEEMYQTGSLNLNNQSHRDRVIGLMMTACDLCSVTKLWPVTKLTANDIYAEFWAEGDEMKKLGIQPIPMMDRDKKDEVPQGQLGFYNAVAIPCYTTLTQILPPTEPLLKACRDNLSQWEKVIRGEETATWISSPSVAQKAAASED
Chain of PDE7A (Q13946 whole entry): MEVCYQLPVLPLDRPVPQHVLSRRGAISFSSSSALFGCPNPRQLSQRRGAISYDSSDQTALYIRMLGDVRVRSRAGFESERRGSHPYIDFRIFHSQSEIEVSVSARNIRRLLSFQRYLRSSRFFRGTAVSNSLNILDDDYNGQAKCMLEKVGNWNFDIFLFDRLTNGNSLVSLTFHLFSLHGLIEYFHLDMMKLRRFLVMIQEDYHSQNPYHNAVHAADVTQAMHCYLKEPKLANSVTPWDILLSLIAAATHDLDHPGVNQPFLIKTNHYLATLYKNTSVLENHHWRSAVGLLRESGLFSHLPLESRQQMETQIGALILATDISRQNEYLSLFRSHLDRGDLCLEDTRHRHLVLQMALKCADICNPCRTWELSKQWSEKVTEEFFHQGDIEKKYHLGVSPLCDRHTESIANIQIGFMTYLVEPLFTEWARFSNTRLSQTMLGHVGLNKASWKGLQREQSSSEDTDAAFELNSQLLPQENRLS
Chain of PDE6C (P51160 whole entry): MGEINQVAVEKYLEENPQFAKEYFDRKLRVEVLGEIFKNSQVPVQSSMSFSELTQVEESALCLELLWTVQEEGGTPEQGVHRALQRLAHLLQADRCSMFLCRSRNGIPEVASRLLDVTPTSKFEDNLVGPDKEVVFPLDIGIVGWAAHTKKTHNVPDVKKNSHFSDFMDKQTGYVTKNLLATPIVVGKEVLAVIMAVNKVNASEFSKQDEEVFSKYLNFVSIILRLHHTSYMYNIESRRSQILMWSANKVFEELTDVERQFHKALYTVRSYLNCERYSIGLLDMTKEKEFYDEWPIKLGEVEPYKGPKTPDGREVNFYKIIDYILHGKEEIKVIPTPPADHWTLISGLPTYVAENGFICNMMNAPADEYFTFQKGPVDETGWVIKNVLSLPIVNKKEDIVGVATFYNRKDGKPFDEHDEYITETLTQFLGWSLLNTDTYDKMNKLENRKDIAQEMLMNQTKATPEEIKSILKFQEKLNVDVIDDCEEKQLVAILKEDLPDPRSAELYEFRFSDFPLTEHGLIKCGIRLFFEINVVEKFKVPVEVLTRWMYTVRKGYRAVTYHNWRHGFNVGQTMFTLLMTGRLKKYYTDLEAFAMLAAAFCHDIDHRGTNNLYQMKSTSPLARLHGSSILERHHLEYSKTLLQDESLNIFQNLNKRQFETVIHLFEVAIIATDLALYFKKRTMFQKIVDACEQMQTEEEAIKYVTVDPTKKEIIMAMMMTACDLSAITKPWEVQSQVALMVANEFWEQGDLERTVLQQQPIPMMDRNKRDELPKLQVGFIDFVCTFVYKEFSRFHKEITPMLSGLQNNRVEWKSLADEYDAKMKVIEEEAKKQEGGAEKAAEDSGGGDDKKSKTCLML
Chain of human PDE11A4 (Q9HCR9 whole entry): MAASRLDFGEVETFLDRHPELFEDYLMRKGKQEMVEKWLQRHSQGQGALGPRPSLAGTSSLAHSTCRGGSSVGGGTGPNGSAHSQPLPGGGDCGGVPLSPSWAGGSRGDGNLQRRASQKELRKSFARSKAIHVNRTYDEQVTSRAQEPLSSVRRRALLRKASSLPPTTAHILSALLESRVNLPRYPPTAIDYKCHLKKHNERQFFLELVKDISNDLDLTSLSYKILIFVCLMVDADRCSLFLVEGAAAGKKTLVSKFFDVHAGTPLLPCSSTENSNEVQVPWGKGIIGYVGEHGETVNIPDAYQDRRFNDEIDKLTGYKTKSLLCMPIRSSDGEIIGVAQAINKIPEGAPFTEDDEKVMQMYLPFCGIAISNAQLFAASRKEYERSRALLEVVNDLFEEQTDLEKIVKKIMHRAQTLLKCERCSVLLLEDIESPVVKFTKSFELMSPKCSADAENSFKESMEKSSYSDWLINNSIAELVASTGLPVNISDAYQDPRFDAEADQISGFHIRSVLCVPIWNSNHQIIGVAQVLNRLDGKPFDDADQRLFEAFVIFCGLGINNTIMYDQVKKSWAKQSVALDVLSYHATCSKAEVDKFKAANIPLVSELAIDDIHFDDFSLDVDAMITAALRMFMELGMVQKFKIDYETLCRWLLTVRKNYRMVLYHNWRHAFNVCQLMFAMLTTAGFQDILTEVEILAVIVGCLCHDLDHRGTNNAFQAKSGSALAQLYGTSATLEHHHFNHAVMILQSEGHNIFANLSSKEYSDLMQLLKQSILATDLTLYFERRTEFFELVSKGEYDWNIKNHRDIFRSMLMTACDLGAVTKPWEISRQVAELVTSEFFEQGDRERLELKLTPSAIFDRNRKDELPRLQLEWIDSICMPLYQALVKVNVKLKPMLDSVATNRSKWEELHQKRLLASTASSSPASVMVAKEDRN

SMILES: CCN(CC)C(=O)c1cc(-c2cccs2)nc2c1c(C)nn2-c1ccccc1C [BC11-15]
- IC50 [1]: 43 µM
- IC50 [2]: 43 µM
- IC50 [3]: 25 µM
- IC50 [4]: 35 µM

SMILES: Cn1c(NC(=O)c2ccccc2NC(=O)c2ccccc2)nc2ccccc21 [BC11-4]
- % apoptosis ([5]; compound): 66.9%
- % apoptosis ([5]; compound alone (DMSO)): 70.1%
- effect on apoptosis, in words [5]: increase in apoptosis
- % apoptosis ([6]; BC11-4 0.1 μM, Roli 0 μM): 6.65%
- % apoptosis ([6]; BC11-4 0.1 μM, Roli 0.2 μM): 10.4%
- % apoptosis ([6]; BC11-4 0.1 μM, Roli 2.0 μM): 21.2%
- % apoptosis ([6]; BC11-4 0.1 μM, Roli 20 μM): 28.8%
- % apoptosis ([6]; BC11-4 1.0 μM, Roli 0 μM): 4.71%
- % apoptosis ([6]; BC11-4 1.0 μM, Roli 0.2 μM): 10.8%
- % apoptosis ([6]; BC11-4 1.0 μM, Roli 2.0 μM): 20.8%
- % apoptosis ([6]; BC11-4 1.0 μM, Roli 20 μM): 29.6%
- % apoptosis ([6]; BC11-4 10.0 μM, Roli 0 μM): 5.78%
- % apoptosis ([6]; BC11-4 10.0 μM, Roli 0.2 μM): 4.93%
- % apoptosis ([6]; BC11-4 10.0 μM, Roli 2.0 μM): 6.72%
- % apoptosis ([6]; BC11-4 10.0 μM, Roli 20 μM): 15.8%
- response of cells (apoptosis), in words ([6]; second patient): did not respond
- Apoptosis (%) JVM-2 Cells (B cell leukemia) ([7]; 40 μM): 32.3%
- effect on apoptosis, in words [7]: increased apoptosis
- % apoptosis of normal T cells ([8]; compound 20 μM alone (DMSO)): 14.3%
- % apoptosis of normal T cells [8, 18]: 13.9%
- cell viability of normal T cells [8]: did not affect cell viability
- Apoptosis (%) REC-1 Cells (B cell leukemia) ([9]; 40 μM): 100%
- effect on apoptosis, in words [9]: increased apoptosis

SMILES: COc1ccc(C2CNC(=O)C2)cc1OC1CCCC1 (stereo not drawn) [Rolipram, rolipram, reference compound]
- % apoptosis ([5]; compound alone (DMSO)): 46.7%
- effect on apoptosis, in words [5]: not affected
- % apoptosis ([6]; Roli 0.2 μM, BC11-4 0 μM): 12.7%
- % apoptosis ([6]; Roli 2.0 μM, BC11-4 0 μM): 24.9%
- % apoptosis ([6]; Roli 20 μM, BC11-4 0 μM): 33.8%
- Apoptosis (%) JVM-2 Cells (B cell leukemia) ([7]; 20 μM): 18.5%
- effect on apoptosis, in words [7]: not affected
- % apoptosis of normal T cells ([8]; compound 20 μM alone (DMSO)): 9.4%
- Apoptosis (%) REC-1 Cells (B cell leukemia) ([9]; 20 μM): 56.7%
- effect on apoptosis, in words [9]: not affected
- % apoptosis ([10]; Roli 0.2 μM, BC11-8 0 μM): 13.2%
- % apoptosis ([10]; Roli 2.0 μM, BC11-8 0 μM): 23.5%
- % apoptosis ([10]; Roli 20 μM, BC11-8 0 μM): 29.9%

SMILES: O=c1nc2sc3ccccc3n2c(=O)n1-c1ccccc1 [BC11-19]
- cortisol production by H295R cells [11]: consistently elevates
- cAMP levels in H295R cells [12]: consistently elevates

SMILES: C=CCSc1nnc2n(-c3ccccc3)c(=O)c3c(C)c(C)sc3n12 [BC11-8]
- % apoptosis ([5]; compound): 63.3%
- % apoptosis ([5]; compound alone (DMSO)): 60.1%
- effect on apoptosis, in words [5]: increase in apoptosis
- IC50 [13]: 0.2 µM
- Apoptosis (%) JVM-2 Cells (B cell leukemia) ([7]; 40 μM): 28.8%
- effect on apoptosis, in words [7]: increased apoptosis
- IC50 [14]: 0.05 µM
- % apoptosis of normal T cells ([8]; compound 20 μM alone (DMSO)): 10.3%
- % apoptosis of normal T cells [8, 18]: 14.7%
- cell viability of normal T cells [8]: did not affect cell viability
- Apoptosis (%) REC-1 Cells (B cell leukemia) ([9]; 40 μM): 66.2%
- effect on apoptosis, in words [9]: increased apoptosis
- % apoptosis ([10]; BC11-8 0.1 μM, Roli 0 μM): 6.31%
- % apoptosis ([10]; BC11-8 0.1 μM, Roli 0.2 μM): 11.7%
- % apoptosis ([10]; BC11-8 0.1 μM, Roli 2.0 μM): 22.7%
- % apoptosis ([10]; BC11-8 0.1 μM, Roli 20 μM): 28.2%
- % apoptosis ([10]; BC11-8 1.0 μM, Roli 0 μM): 7.63%
- % apoptosis ([10]; BC11-8 1.0 μM, Roli 0.2 μM): 13.1%
- % apoptosis ([10]; BC11-8 1.0 μM, Roli 2.0 μM): 19.5%
- % apoptosis ([10]; BC11-8 1.0 μM, Roli 20 μM): 26.7%
- % apoptosis ([10]; BC11-8 10.0 μM, Roli 0 μM): 21.8%
- % apoptosis ([10]; BC11-8 10.0 μM, Roli 0.2 μM): 28.5%
- % apoptosis ([10]; BC11-8 10.0 μM, Roli 2.0 μM): 40.1%
- % apoptosis ([10]; BC11-8 10.0 μM, Roli 20 μM): 41.5%
- effect on apoptosis, in words ([10]; third patient, additive with rolipram): increased apoptosis

SMILES: CCCSc1nc2c(c(=O)n1-c1ccccc1)SCC2 [BC11-38]
- phosphorylation of ATF1 [15]: PDE11A-specific increase
- cAMP levels in HeLa cells [16]: do not increase
- cortisol production by H295R cells [11]: significantly increased
- CREB phosphorylation in HeLa cells [17]: do not increase
- cAMP levels in H295R cells [12]: significantly increased

Reference: US9173884B2, “Inhibitors of phosphodiesterase 11 (PDE11)” (TRUSTEES OF BOSTON COLLEGE, priority 2011, dated 2015)
